# From ChEMBL document CHEMBL6096739, “The Myxobacterial Genus Archangium: A Prolific and Underexploited Source of Bioactive Secondary Metabolites” (J Med Chem, 2025)
# Numbered stars: 1 amine (or outer) side, 2 acyl side, 3 side chain; on linkers, the order of the positions; unused ones are H or OH. Square brackets hold non-standard residues; d marks the D form. Peptide text beside a SMILES is read from it. X1 = COc1cccc2[nH]c(C)c(C[C@H](N[*:1])C(=O)[*:2])c12; dAla(ψthiazole) = C[C@@H](N[*:1])c1nc(C(=O)[*:2])cs1; Trp(4-OMe) = COc1cccc2[nH]cc(C[C@H](N)C(=O)O)c12; X2 = O=C(c1csc([C@@H](CO)N[*:1])n1)[*:2]; GlyΨ(Thz) = O=C(c1csc(CN[*:1])n1)[*:2]; dAbu = CC[C@@H](N)C(=O)O; Dha = C=C(N)C(=O)O; Sar = CNCC(=O)O
# Experiments:
# Clostridium perfringens = experiment: Antibacterial activity against Clostridium perfringens assessed as bacterial growth inhibition after 24 hrs by microdilution method; format: functional
# Botrytis cinerea = experiment: Antifungal activity against Botrytis cinerea; format: functional
# [1] = system: Globisporangium debaryanum; experiment: Antifungal activity against Pythium debaryanum DSM 62946; format: functional
# [2] = system: Metschnikowia pulcherrima; experiment: Antifungal activity against Metschnikowia pulcherrima DSM 70321; format: functional
# KB = experiment: Cytotoxicity against human KB cells assessed as reduction in cell viability measured after 72 hrs by MTT assay; format: functional, cell-based
# U-937 = experiment: Cytotoxicity activity against human U-937 cells assessed as reduction in cell viability measured after 24 hrs by CCK-8 assay; format: functional, cell-based
# HCT-116 = experiment: Cytotoxicity against human HCT-116 cells assessed as reduction in cell growth measured after 72 hrs by MTT assay; format: functional, cell-based; conditions: HCT-116, 72 h
# [3] = Cytotoxicity against mouse L929 cells assessed reduction in cell viability incubated for 24 hrs by MTT assay; format: toxicity, cell-based
# [4] = Toxicity in po dosed rat assessed as lethal dose; format: organism-based; design: unit not given here; conditions: in vivo
# Pseudomonas aeruginosa = experiment: Antibacterial activity against Pseudomonas aeruginosa ATCC 27853 assessed as bacterial growth inhibition; format: functional, organism-based
structure (smiles),measurement,setting,value
C=C/C=C(\C)[C@@H](O)CC[C@@H](C)/C=C/[C@@H]1CC[C@@H](C)C(=O)CC(=O)N[C@@H](C)CCC(=O)[C@@H](C)[C@H](O)[C@@H](C)/C=C(\C)C(=O)O1,MIC,Clostridium perfringens,0.78 µg/mL
COCC(C)C1=NC(c2nc(/C=C/[C@H](OC)[C@@H](C)/C(=C\C(=O)OC)OC)cs2)CS1 (some centres not stated),MIC,Botrytis cinerea,0.04 µg/mL
same,MIC,[1],0.0947 µM
same,MIC,[2],0.04 µg/mL
C=C1NC(=O)[C@@H](CC)NC(=O)CNC(=O)[C@H](Cc2c[nH]c3cccc(OC)c23)NC(=O)[C@H](Cc2c[nH]c3ccccc23)NC(=O)c2csc(n2)[C@@H](CO)NC(=O)CN(C)C1=O (cyclo([Dha][Sar][X2]W[Trp(4-OMe)]G[dAbu])),IC50,KB,5 nM
CC[C@H](C)[C@H](NC(=O)[C@H]1CCCCN1C)C(=O)N(COC(=O)CC(C)C)[C@H](C[C@@H](OC(C)=O)c1nc(C(=O)N[C@@H](Cc2ccccc2)C[C@H](C)C(=O)O)cs1)C(C)C [TUBULYSIN D],IC50,"U-937; Homo sapiens, U-937, 24 h",0.005 nM
same,IC50,HCT-116,0.003 nM
COC(=O)/C=C(/OC)[C@H](C)[C@H](/C=C/c1csc(-c2csc(C(C)=O)n2)n1)OC,MIC,Botrytis cinerea,0.04 µg/mL
same,MIC,[1],0.0947 µM
same,MIC,[2],0.04 µg/mL
COC(=O)/C=C(/OC)[C@H](C)[C@H](/C=C/c1csc(-c2csc(C3(C)CO3)n2)n1)OC (some centres not stated),MIC,Botrytis cinerea,0.04 µg/mL
same,MIC,[1],0.0947 µM
same,MIC,[2],0.04 µg/mL
O=C(O)c1ccnc2ccccc12,MIC,[2],< 1 µg/mL
N#CCc1c[nH]c2ccccc12,MIC,[2],< 1 µg/mL
COC(=O)/C=C(/OC)[C@H](C)[C@H](/C=C/c1csc(C2CSC(C3(C)CO3)=N2)n1)OC (some centres not stated),MIC,Botrytis cinerea,0.04 µg/mL
same,MIC,[1],0.0947 µM
same,MIC,[2],0.04 µg/mL
C=C(NC(=O)/C(C)=C/C=C\CCCCCCC)C(=O)N/C(=C\OC)C(=O)OC,IC50 at 24 h,[3],3100 nM
O=C(CO)c1c[nH]c2ccccc12,MIC,[2],< 1 µg/mL
COC(=O)/C=C(/OC)[C@H](C)[C@H](/C=C/c1csc(C2CSC(C(C)C)=N2)n1)OC (some centres not stated),MIC,Botrytis cinerea,0.04 µg/mL
same,MIC,[1],0.0947 µM
same,MIC,[2],0.04 µg/mL
CCC(=O)OCN(C(=O)[C@@H](NC(=O)[C@H]1CCCCN1C)[C@@H](C)CC)[C@H](C[C@@H](OC(C)=O)c1nc(C(=O)N[C@@H](Cc2ccc(O)cc2)C[C@H](C)C(=O)O)cs1)C(C)C,IC50,"U-937; Homo sapiens, U-937, 24 h",0.005 nM
C=C1NC(=O)[C@@H](C)NC(=O)CNC(=O)[C@H](Cc2c[nH]c3cccc(OC)c23)NC(=O)[C@H](Cc2c[nH]c3ccccc23)NC(=O)c2csc(n2)CNC(=O)CN(C)C1=O (cyclo([Dha][Sar][GlyΨ(Thz)]W[Trp(4-OMe)]G[dA])),IC50,KB,5 nM
CC[C@H](C)[C@H](NC(=O)[C@H]1CCCCN1C)C(=O)N(COC(C)=O)[C@H](C[C@@H](OC(C)=O)c1nc(C(=O)N[C@@H](Cc2ccc(O)cc2)C[C@H](C)C(=O)O)cs1)C(C)C,IC50,"U-937; Homo sapiens, U-937, 24 h",0.005 nM
CCCC(=O)OCN(C(=O)[C@@H](NC(=O)[C@H]1CCCCN1C)[C@@H](C)CC)[C@H](C[C@@H](OC(C)=O)c1nc(C(=O)N[C@@H](Cc2ccc(O)cc2)C[C@H](C)C(=O)O)cs1)C(C)C [TUBULYSIN B],IC50,"U-937; Homo sapiens, U-937, 24 h",0.005 nM
C=C(C)c1nc(-c2nc(/C=C/[C@H](OC)[C@@H](C)/C(=C\C(=O)OC)OC)cs2)cs1,MIC,Botrytis cinerea,0.04 µg/mL
same,MIC,[1],0.0947 µM
same,MIC,[2],0.04 µg/mL
CC[C@H](C)[C@H](NC(=O)[C@H]1CCCCN1C)C(=O)N(COC(C)=O)[C@H](C[C@@H](OC(C)=O)c1nc(C(=O)N[C@@H](Cc2ccccc2)C[C@H](C)C(=O)O)cs1)C(C)C,IC50,"U-937; Homo sapiens, U-937, 24 h",0.005 nM
C=C1NC(=O)[C@@H](C)NC(=O)CNC(=O)[C@H](Cc2c[nH]c3cccc(OC)c23)NC(=O)[C@H](Cc2c[nH]c3ccccc23)NC(=O)c2csc(n2)[C@@H](C)NC(=O)CN(C)C1=O (cyclo(W[Trp(4-OMe)]G[dA][Dha][Sar][dAla(ψthiazole)])),IC50,KB,5 nM
CC1=C(/C=C/C=C\C=C\[C@@H](C)[C@@H](O)/C(C)=C/CC(C)C)OC(C)(O)C1=O (some centres not stated),IC50 at 24 h,[3],1000 nM
OCc1ccnc2ccccc12,MIC,[2],< 1 µg/mL
C/C1=C\C=C=CCCC/C=C/[C@H]2O[C@@H](C(=O)O[C@H](C)[C@H]1O)[C@@H](O)[C@@H]2O,MIC,Clostridium perfringens,2.5 µg/mL
C/C=C1/NC(=O)[C@@H]2CSC(=N2)[C@@H]2CCCN2C(=O)[C@@H](CC(C)C)NC(=O)[C@H](C)NC(=O)[C@@H](O)COC(=O)[C@H](C(C)C)N(C)C(=O)[C@H]([C@@H](C)O)NC(=O)[C@@H]2CCCN2C1=O,LD50,[4],2.3
O=Cc1ccnc2ccccc12,MIC,[2],< 1 µg/mL
C=C(NC(=O)/C(C)=C/C=C\CCCCC(C)C)C(=O)N/C(=C\OC)C(=O)OC,IC50 at 24 h,[3],3100 nM
C=C(NC(=O)/C(C)=C/C=C\CCCCCC(C)C)C(=O)N/C(=C\OC)C(=O)OC,IC50 at 24 h,[3],3100 nM
CC1=C(C[C@H](O)/C=C\C=C\[C@@H](C)[C@@H](O)/C(C)=C/CC(C)C)OC(C)(O)C1=O (some centres not stated),IC50 at 24 h,[3],1000 nM
C=C1NC(=O)[C@@H](C)NC(=O)CNC(=O)[C@H](Cc2c[nH]c3cccc(OC)c23)NC(=O)[C@H](Cc2c[nH]c3ccccc23)NC(=O)c2csc(n2)[C@@H](CO)NC(=O)CN(C)C1=O (cyclo([Dha][Sar][X2]W[Trp(4-OMe)]G[dA])),IC50,KB,5 nM
CCC(=O)OCN(C(=O)[C@@H](NC(=O)[C@H]1CCCCN1C)[C@@H](C)CC)[C@H](C[C@@H](OC(C)=O)c1nc(C(=O)N[C@@H](Cc2ccccc2)C[C@H](C)C(=O)O)cs1)C(C)C,IC50,"U-937; Homo sapiens, U-937, 24 h",0.005 nM
C/C=C1\NC(=O)[C@H]2CSC(=N2)[C@@H]2C[C@@H](C)N2C(=O)[C@@H](CC(C)C)NC(=O)[C@H](C)NC(=O)[C@@H](O)COC(=O)[C@H](C(C)C)N(C)C(=O)[C@H]([C@@H](C)O)NC(=O)[C@@H]2CCCCN2C1=O,LD50,[4],2.3
O/N=C\c1ccnc2ccccc12,MIC,[2],< 1 µg/mL
C/C=C1/NC(=O)[C@@H]2CSC(=N2)[C@@H]2CCCN2C(=O)[C@@H](CC(C)C)NC(=O)[C@H](C)NC(=O)[C@@H](O)COC(=O)[C@H](C(C)C)N(C)C(=O)[C@H]([C@@H](C)O)NC(=O)[C@@H]2CCCCN2C1=O,LD50,[4],2.3
C=C(C)C1=NC(c2nc(/C=C/[C@H](OC)[C@@H](C)/C(=C\C(=O)OC)OC)cs2)CS1 (some centres not stated),MIC,Botrytis cinerea,0.04 µg/mL
same,MIC,[1],0.0947 µM
same,MIC,[2],0.04 µg/mL
O/N=C/Cc1c[nH]c2ccccc12,MIC,[2],< 1 µg/mL
C/C=C1\NC(=O)[C@H]2CSC(=N2)[C@@H]2C[C@@H](C)N2C(=O)[C@@H](CC(C)C)NC(=O)[C@H](C)NC(=O)[C@@H](O)COC(=O)[C@H](C(C)C)N(C)C(=O)[C@H]([C@@H](C)O)NC(=O)[C@@H]2CCCN2C1=O,LD50,[4],2.3
C=C1NC(=O)[C@@H](C)NC(=O)CNC(=O)[C@H](Cc2c(C)[nH]c3cccc(OC)c23)NC(=O)[C@H](Cc2c[nH]c3ccccc23)NC(=O)c2csc(n2)[C@@H](C)NC(=O)CN(C)C1=O (cyclo(W[X1]G[dA][Dha][Sar][dAla(ψthiazole)])),IC50,KB,5 nM
CC[C@H](C)[C@H](NC(=O)[C@H]1CCCCN1C)C(=O)N(COC(=O)C=C(C)C)[C@H](C[C@@H](OC(C)=O)c1nc(C(=O)N[C@@H](Cc2ccc(O)cc2)C[C@H](C)C(=O)O)cs1)C(C)C,IC50,"U-937; Homo sapiens, U-937, 24 h",0.005 nM
CCCC(=O)OCN(C(=O)[C@@H](NC(=O)[C@H]1CCCCN1C)[C@@H](C)CC)[C@H](C[C@@H](OC(C)=O)c1nc(C(=O)N[C@@H](Cc2ccccc2)C[C@H](C)C(=O)O)cs1)C(C)C,IC50,"U-937; Homo sapiens, U-937, 24 h",0.005 nM
CC[C@H](C)[C@H](NC(=O)[C@H]1CCCCN1C)C(=O)N(COC(=O)CC(C)C)[C@H](C[C@@H](OC(C)=O)c1nc(C(=O)N[C@@H](Cc2ccc(O)cc2)C[C@H](C)C(=O)O)cs1)C(C)C [TUBULYSIN-A],IC50,U-937; u-937,0.005 nM
C=C1NC(=O)[C@@H](CC)NC(=O)CNC(=O)[C@H](Cc2c(C)[nH]c3cccc(OC)c23)NC(=O)[C@H](Cc2c[nH]c3ccccc23)NC(=O)c2csc(n2)[C@@H](C)NC(=O)CN(C)C1=O (cyclo(W[X1]G[dAbu][Dha][Sar][dAla(ψthiazole)])),IC50,KB,5 nM
C=C1NC(=O)[C@@H](CC)NC(=O)CNC(=O)[C@H](Cc2c[nH]c3cccc(OC)c23)NC(=O)[C@H](Cc2c[nH]c3ccccc23)NC(=O)c2csc(n2)[C@@H](C)NC(=O)CN(C)C1=O (cyclo([Dha][Sar][dAla(ψthiazole)]W[Trp(4-OMe)]G[dAbu])),IC50,Pseudomonas aeruginosa,0.05 µg/mL
same,IC50,KB,5 nM
